Measurements published in the NIST ThermoML archive (doi:10.1016/j.jct.2016.06.020).
± gives the expanded uncertainty stated by the source.

Tests used:
[1] = Crystal; DTA
[2] = Molar enthalpy of transition or fusion; details: Crystal; DSC

For CCN1C(=O)N(C)[C@@H]2[C@H]1N(C)C(=O)N2CC (racemic), the Normal melting temperature [1] was 118.6 ± 0.6 °C and the “Molar enthalpy of transition or fusion” value [2] was 4.97 ± 0.167 kcal/mol.
